This is an account of results in patent US8633211B2, “Bicyclic organic compounds suitable for the treatment of inflammatory or allergic conditions” (Novartis AG, priority 2007, dated 2014).

As usually defined, the IC50 is the concentration that gives 50% inhibition. A low value points to greater potency in that assay. As usually defined, the Kb is the affinity of an antagonist, worked out from how it opposes an agonist. The low end stands for higher antagonist affinity, the high end for lower antagonist affinity.

T2 sequence (O95136 whole entry): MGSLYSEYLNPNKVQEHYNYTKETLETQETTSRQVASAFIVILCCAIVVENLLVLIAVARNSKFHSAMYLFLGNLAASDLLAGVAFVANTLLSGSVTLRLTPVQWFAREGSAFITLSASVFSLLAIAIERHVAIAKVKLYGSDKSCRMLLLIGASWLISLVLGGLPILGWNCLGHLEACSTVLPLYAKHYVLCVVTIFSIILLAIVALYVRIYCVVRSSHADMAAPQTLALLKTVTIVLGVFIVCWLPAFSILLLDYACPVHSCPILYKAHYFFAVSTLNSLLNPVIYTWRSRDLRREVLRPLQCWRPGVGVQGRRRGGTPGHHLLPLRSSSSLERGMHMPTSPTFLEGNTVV

The first test addresses T1, human S1P4 (Homo sapiens, UniProt O95977).
T1 construct: expressed in transfected cells; host or cells: CHO (Chinese Hamster Ovary) S1P4/Gα16 cell clone
T1 sequence (O95977 1-384): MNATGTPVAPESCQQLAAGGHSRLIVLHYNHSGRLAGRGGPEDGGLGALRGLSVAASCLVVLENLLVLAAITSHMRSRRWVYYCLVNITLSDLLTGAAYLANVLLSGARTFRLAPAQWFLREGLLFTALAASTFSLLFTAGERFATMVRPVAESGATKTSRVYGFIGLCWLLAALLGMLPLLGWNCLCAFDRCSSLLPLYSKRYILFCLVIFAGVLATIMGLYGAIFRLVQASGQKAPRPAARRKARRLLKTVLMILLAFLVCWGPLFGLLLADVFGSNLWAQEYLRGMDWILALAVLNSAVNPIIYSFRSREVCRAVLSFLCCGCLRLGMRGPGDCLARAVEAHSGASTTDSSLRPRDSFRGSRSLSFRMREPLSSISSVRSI
The test can be described thus: CHO Gα16 S1P4 intracellular Ca2+ (FLIPR) assay. Conditions: relative antagonism of S1P (EC80) induced Ca2+ change, CHO S1P4/Gα16 cells. In kind it is cell-based. The method, then:
The cells are plated in 384 well black plates (10′000 cells per well). […] After washing, the cells are transferred to the FLIPR. […] This allows the determination of the maximal fluorescence (Fmax).
In the case of `COc1cc(OC)c(NC(=O)Cn2c(=O)n(CC(=O)NCCc3ccccc3)c(=O)c3ccccc32)cc1Cl` [Example 1-35, 2-{1-[(5-Chloro-2,4-dimethoxy-phenylcarbamoyl)-methyl]-2,4-dioxo-1,4-dihydro-2H-quinazolin-3-yl}-N-phenethyl-acetamide], the IC50 was determined as 15 nM.

The molecule `COc1cc(OC)c(NC(=O)Cn2c(=O)n(CC(=O)OC(C)(C)C)c(=O)c3ccccc32)cc1Cl` [Example 1-37, {1-[(5-Chloro-2,4-dimethoxy-phenylcarbamoyl)-methyl]-2,4-dioxo-1,4-dihydro-2H-quinazolin-3-yl}-acetic acid tert butyl ester] had an IC50 of 880 nM.

The next test concerns the target T2, human S1P2 receptor (Homo sapiens, UniProt O95136).
T2 construct: expressed in transfected cells; host or cells: CHO cells (membrane preparation)
The experiment in a line: GTPγS binding assay (SPA), antagonism of S1P at S1P2. The format is biochemical. To be noted: GTP-γ-S binding assay, membranes of CHO cells expressing human S1P2, 5 nM S1P. On the procedure:
The ability of compounds to antagonise S1P activity at S1P2 and S1P3 receptors was examined using GTPγS binding assays.
Membranes preparations were generated from CHO cells expressing either the human S1P2 or S1P3 receptors by homogenisation of the cell suspension and centrifugation at 40 000 g for 30 minutes at 4° C. The supernatant was removed, pellet re-suspended in a 10 mM HEPES, 10 mM EDTA buffer and centrifuged as above. The pellet was re-suspended and stored at −80° C. until use.
Scintillation proximity assay (SPA) technology was used for the GTPγS binding assays. Serial dilutions of test compounds were placed in a 96-well optiplate with 5 nM S1P, 1.25 μg membrane, 0.5 mg SPA beads, 0.3 μM GDP and 100 μM sodium orthovanidate, per well. The assay components were incubated for 2 hours to ensure equilibrium was attained. The assay was started by the addition of 300 pM [^35S]GTPγS per well and incubated for 60 minutes prior to centrifugation at 3000 rpm for 3 minutes and reading of a Packard TopCount.
Data were analysed using Activity Base (IDBS, UK) by fitting a four parameter logistic curve to generate IC50 values for each compound.
For orientation: GTPγS resists hydrolysis and so accumulates on activated G proteins.
In the case of `CCOc1ccc(C(=O)Cn2c(=O)n(CCCC(=O)NC3CCCC3)c(=O)c3cc(Cl)ccc32)cc1Cl` [Compound 3-4, 4-{6-Chloro-1-[2-(3-chloro-4-ethoxy-phenyl)-2-oxo-ethyl]-2,4-dioxo-1,4-dihydro-2H quinazolin-3-yl}-N-cyclopentyl-butyramide], the Kb amounted to 4.8 nM.

In the case of `COc1cc(OC)c(NC(=O)Cn2c(=O)n(CC(=O)O)c(=O)c3ccccc32)cc1Cl` [Example 1-1, {1-[(5-Chloro-2,4-dimethoxy-phenylcarbamoyl)-methyl]-2,4-dioxo-1,4-dihydro-2H-quinazolin-3-yl}-acetic acid], the Kb worked out at 0.8 nM.

`COc1cc(OC)c(NC(=O)Cn2c(=O)n(CC(=O)NCCc3cccnc3)c(=O)c3ccccc32)cc1Cl` [Example 1-13, N-(5-Chloro-2,4-dimethoxy-phenyl)-2-{2,4-dioxo-3-[(2-pyridin-3-yl-ethylcarbamoyl)-methyl]-3,4-dihydro-2H-quinazolin-1-yl}-acetamide] had a Kb of 1.9 nM.

`COc1cc(OC)c(NC(=O)Cn2c(=O)n(-c3ccc(CC(=O)NCCc4ccccc4)cc3)c(=O)c3ccccc32)cc1Cl` [Example 2-1, 2-(4-{1-[(5-Chloro-2,4-dimethoxy-phenylcarbamoyl)-methyl]-2,4-dioxo-1,4-dihydro-2H-quinazolin-3-yl}-phenyl)-N-phenethyl-acetamide] had a Kb of 3.6 nM.
